Results from US6706716B2, “Compounds specific for the human α1d adrenergic receptor and uses thereof” (Synaptic Pharmaceutical Corporation, priority 1998, dated 2004).

Experiments:
[1] = biological target: T1, human α1a adrenergic receptor (Homo sapiens, UniProt P35348); test: Radioligand binding ([3H]prazosin) at cloned human α1a adrenergic receptor; details: LM(tk-) cell membranes, read-out: Binding affinities (pKi) α1a (converted)
T1 construct: The entire coding region of α1a (1401 bp); expressed in transfected cells
T1 sequence (P35348 1-466): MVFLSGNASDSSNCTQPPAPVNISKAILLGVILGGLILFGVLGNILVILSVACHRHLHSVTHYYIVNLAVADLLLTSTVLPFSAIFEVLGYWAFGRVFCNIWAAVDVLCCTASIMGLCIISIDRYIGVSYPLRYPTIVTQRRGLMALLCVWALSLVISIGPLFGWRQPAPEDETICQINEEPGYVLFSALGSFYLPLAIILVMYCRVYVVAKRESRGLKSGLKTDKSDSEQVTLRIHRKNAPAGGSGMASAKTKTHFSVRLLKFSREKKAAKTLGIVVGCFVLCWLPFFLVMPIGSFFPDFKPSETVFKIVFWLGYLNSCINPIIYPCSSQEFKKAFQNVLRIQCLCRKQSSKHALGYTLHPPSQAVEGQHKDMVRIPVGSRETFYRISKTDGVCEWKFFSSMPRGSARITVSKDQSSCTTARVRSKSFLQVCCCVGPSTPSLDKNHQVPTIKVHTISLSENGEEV
Experimental: (§1) First, conditions were determined which allowed measurement of the specific binding of a compound known to bind to the receptor. Then, the binding of the known compound to the receptor in membrane preparations was evaluated in the presence of several different concentrations of the test compound.
(§2) These cell lines were prepared by transfecting the cloned cDNA or cloned genomic DNA or constructs containing both genomic DNA and cDNA encoding the human receptors as described below.
The construct involved ligating three partial overlapping fragments: a 5′0.6 kb HincII genomic clone, a central 1.8 EcoRI hippocampal cDNA clone, and a 3′0.6 Kb PstI genomic clone. The hippocampal cDNA fragment overlaps with the 5′ and 3′ genomic clones so that the HincII and PstI sites at the 5′ and 3′ ends of the cDNA clone, respectively, were utilized for ligation. This full-length clone was cloned into the KpnI site of the expression vector, using the 5′ and 3′ KpnI sites of the fragment, derived from vector (i.e., pBluescript) and 3′-untranslated sequences, respectively. Stable cell lines were selected as described above. Membranes were harvested and assayed for their ability to bind [^3H]prazosin as described below (see Radioligand Binding assays).
(§3) Radioligand Binding Assays for α1 Human Adrenergic Receptors: Transfected cells from culture flasks were scraped into 5 ml of 5 mM Tris-HCl, 5 mM EDTA, pH 7.5, and lysed by sonication. The cell lysates were centrifuged at 1000 rpm for 5 min at 4° C., and the supernatant was centrifuged at 30,000×g for 20 min at 4° C. The pellet was suspended in 50 mM Tris-HCl, 1 mM MgCl2, and 0.1% ascorbic acid at pH 7.5. Binding of the α1, antagonist [^3H]prazosin (0.5 nM, specific activity 76.2 Ci/mmol) to membrane preparations of LM(tk-) cells was done in a final volume of 0.25 ml and incubated at 37° C. for 1 hour. Nonspecific binding was determined in the presence of 10 μM phentolamine. The reaction was stopped by filtration through GF/B filters using a cell harvester.

[2] = biological target: T2, human α1d adrenergic receptor (Homo sapiens, UniProt P25100); test: Radioligand binding ([3H]prazosin) at cloned human α1d adrenergic receptor; details: LM(tk-) cell membranes, read-out: Binding affinities (pKi) α1d (converted)
T2 construct: The entire coding region. of α1d (1719 bp); expressed in transfected cells
T2 sequence (P25100 1-572): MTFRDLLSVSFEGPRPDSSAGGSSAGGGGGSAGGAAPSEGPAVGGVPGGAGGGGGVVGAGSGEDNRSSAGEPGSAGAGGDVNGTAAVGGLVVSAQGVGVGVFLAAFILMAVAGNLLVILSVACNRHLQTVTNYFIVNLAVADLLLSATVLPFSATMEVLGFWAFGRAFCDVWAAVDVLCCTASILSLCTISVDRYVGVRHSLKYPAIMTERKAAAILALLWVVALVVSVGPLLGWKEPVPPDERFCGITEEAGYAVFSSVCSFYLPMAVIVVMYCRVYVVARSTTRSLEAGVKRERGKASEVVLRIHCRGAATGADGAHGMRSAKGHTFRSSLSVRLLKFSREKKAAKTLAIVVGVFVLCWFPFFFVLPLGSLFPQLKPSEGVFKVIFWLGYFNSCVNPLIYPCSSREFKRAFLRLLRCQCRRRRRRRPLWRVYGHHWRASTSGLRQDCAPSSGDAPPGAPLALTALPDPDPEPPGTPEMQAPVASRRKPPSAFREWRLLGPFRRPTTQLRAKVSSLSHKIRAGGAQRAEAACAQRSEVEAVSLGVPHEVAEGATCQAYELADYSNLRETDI
Experimental: as §1, §2
α1d Human Adrenergic Receptor: The entire coding region. of α1d (1719 bp), including 150 base pairs of 5′ untranslated sequence (5′ UT) and 300 bp of 3′ untranslated sequence (3′ UT), was cloned into the BamHI and ClaI sites of the polylinker-modified eukaryotic expression vector pCEXV-3, called EXJ.HR. The construct involved the ligation of partial overlapping human lymphocyte genomic and hippocampal cDNA clones: 5′ sequence were contained on a 1.2 kb SmaI-XhoI genomic fragment (the vector-derived BamHI site was used for subcloning instead of the internal insert-derived SmaI site) and 3′ sequences were contained on a 1.3 kb XhoI-ClaI cDNA fragment (the ClaI site was from the vector polylinker). Stable cell lines were obtained by cotransfection with the plasmid α1A/EXJ (expression vector containing the α1a receptor gene (old nomenclature)) and the plasmid pGCcos3neo (plasmid containing the aminoglycoside transferase gene) into LM(tk-) cells using the calcium phosphate technique. The cells were grown, in a controlled environment (37° C., 5% CO2), as monolayers in Dulbecco's modified Eagle's Medium (GIBCO, Grand Island, N.Y.) containing 25 mM glucose and supplemented with 10% bovine calf serum, 100 units/ml penicillin g, and 100 μg/ml streptomycin sulfate. Stable clones were then selected for resistance to the antibiotic G-418 (1 mg/ml), and membranes were harvested and assayed for their ability to bind [^3H]prazosin as described below (see Radioligand Binding assays).
The cell line expressing the human α1d receptor used herein was designated L-α1A (old nomenclature) and was deposited with the American Type Culture Collection, 12301 Parklawn Drive, Rockville, Md. 20852, U.S.A. under the provisions of the Budapest Treaty for the International Recognition of the Deposit of Microorganisms for the Purposes of Patent Procedure. The cell line expressing the human α1d receptor, was accorded ATCC Accession No. CRL 11138, and was deposited on Sep. 25, 1992.
as §3

SMILES | Ki [1] [nM] | Ki [2] [nM]
O=C1CC2(CCCC2)CC(=O)N1CCN1CCN(c2c(F)cccc2F)CC1 [Compound 14, 8-{2-[4-(2,6-Difluorophenyl)piperazino]ethyl}-8-azaspiro[4.5]decane-7,9-dione] | 3160 | 3.98
C[C@@H](CN1CCN(c2cc(F)ccc2F)CC1)N1C(=O)CC2(CCCC2)CC1=O [Compound 10, 8-{(1S)-2-[4-(2,5-Difluorophenyl)piperazin-1-yl]-1-methylethyl}-8-azaspiro[4.5]decane-7,9-dione] | 7940 | 50.1
O=C1CC2(CCCC2)CC(=O)N1CCN1CCN(c2cc(F)ccc2F)CC1 [Compound 6, 8-{2-[4-(2,5-Difluorophenyl)piperazin-1-yl]ethyl}-8-azaspiro[4.5]decane-7,9-dione] | – | 1
C[C@H](CN1CCN(c2cc(F)ccc2F)CC1)N1C(=O)CC2(CCCC2)CC1=O [Compound 8, 8-{(1R)-2-[4-(2,5-Difluorophenyl)piperazin-1-yl]-1-methylethyl}-8-azaspiro[4.5]decane-7,9-dione] | 6310 | 0.794
O=C1CC2(CCCC2)CC(=O)N1CCN1CCN(c2cc(F)c(F)cc2F)CC1 [Compound 7, 8-{2-[4-(2,4,5-Trifluorophenyl)piperazin-1-yl]ethyl}-8-azaspiro[4.5]decane-7,9-dione] | 3980 | 2
O=C1CC2(CCCC2)CC(=O)N1CCN1CCN(c2ccc(F)c(F)c2)CC1 [Compound 15, 8-{2-[4-(3,4-Difluorophenyl)piperazin-1-yl]ethyl}-8-azaspiro[4.5]decane-7,9-dione] | 3980 | 7.94
COc1ccc(F)cc1C1CCN(CCN2C(=O)CC3(CCCC3)CC2=O)CC1 [Compound 12, 8-{2-[4-(5-Fluoro-2-methoxyphenyl)piperidin-1-yl]ethyl}-8-azaspiro[4.5]decane-7,9-dione] | 79.4 | 1
Cc1ccc(Cl)cc1N1CCN(CCN2C(=O)CC3(CCCC3)CC2=O)CC1 [Compound 13, 8-{2-[4-(5-Chloro-2-methylphenyl)piperazino]ethyl}-8-azaspiro [4.5]decane-7,9-dione] | 7940 | 39.8
